Assay results taken from PubChem BioAssay (NCI).
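Briefly, cells in 96-well plates were exposed to five compound concentrations for 48 h, and endpoints were estimated by linear interpolation. At the GI50, growth is halved. At the TGI there is no net growth.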

Experiments:
Assay in all cases: DTP human tumour cell line panel, 48 h
NCI-H226 lung = test system: NCI-H226 lung
NCI-H23 lung = test system: NCI-H23 lung
NCI-H460 lung = test system: NCI-H460 lung
NCI-H522 lung = test system: NCI-H522 lung
NCI/ADR-RES ovarian = test system: NCI/ADR-RES ovarian
OVCAR-3 ovarian = test system: OVCAR-3 ovarian
OVCAR-4 ovarian = test system: OVCAR-4 ovarian
OVCAR-5 ovarian = test system: OVCAR-5 ovarian
OVCAR-8 ovarian = test system: OVCAR-8 ovarian
PC-3 prostate = test system: PC-3 prostate
RPMI-8226 leukemia = test system: RPMI-8226 leukemia
RXF 393 renal = test system: RXF 393 renal
SF-268 CNS = test system: SF-268 CNS
SF-295 CNS = test system: SF-295 CNS
SF-539 CNS = test system: SF-539 CNS
SK-MEL-2 melanoma = test system: SK-MEL-2 melanoma
SK-MEL-28 melanoma = test system: SK-MEL-28 melanoma
SK-MEL-5 melanoma = test system: SK-MEL-5 melanoma
SK-OV-3 ovarian = test system: SK-OV-3 ovarian
SN12C renal = test system: SN12C renal
SNB-19 CNS = test system: SNB-19 CNS
SNB-75 CNS = test system: SNB-75 CNS
SR leukemia = test system: SR leukemia
SW-620 colon = test system: SW-620 colon
T-47D breast = test system: T-47D breast
TK-10 renal = test system: TK-10 renal
U251 CNS = test system: U251 CNS
UACC-257 melanoma = test system: UACC-257 melanoma
UACC-62 melanoma = test system: UACC-62 melanoma
UO-31 renal = test system: UO-31 renal

SMILES: CC1(C)CC[C@]2(C(=O)O)CC[C@]3(C)C(=CCC4[C@@]5(C)C[C@@H](O)[C@@H]6OC(c7ccc(F)cc7)OC[C@@]6(C)C5CC[C@]43C)C2C1 (some centres undefined)
- TGI (NCI-H226 lung): 23.5 µM
- GI50 (NCI-H23 lung): 4.95 µM
- TGI (NCI-H23 lung): 21.1 µM
- GI50 (NCI-H460 lung): 4.38 µM
- TGI (NCI-H460 lung): 18.1 µM
- GI50 (NCI-H522 lung): 5.21 µM
- TGI (NCI-H522 lung): 23.8 µM
- GI50 (NCI/ADR-RES ovarian): 4.3 µM
- TGI (NCI/ADR-RES ovarian): 22.8 µM
- GI50 (OVCAR-3 ovarian): 4.13 µM
- TGI (OVCAR-3 ovarian): 18.8 µM
- GI50 (OVCAR-4 ovarian): 5.63 µM
- TGI (OVCAR-4 ovarian): 38.4 µM
- GI50 (OVCAR-5 ovarian): 13.3 µM
- TGI (OVCAR-5 ovarian): 33.5 µM
- GI50 (OVCAR-8 ovarian): 6.96 µM
- TGI (OVCAR-8 ovarian): 40.2 µM
- GI50 (PC-3 prostate): 4.18 µM
- TGI (PC-3 prostate): > 100 µM
- GI50 (RPMI-8226 leukemia): 4.35 µM
- TGI (RPMI-8226 leukemia): > 100 µM
- GI50 (RXF 393 renal): 6.66 µM
- TGI (RXF 393 renal): 20.5 µM
- GI50 (SF-268 CNS): 5.3 µM
- TGI (SF-268 CNS): > 100 µM
- GI50 (SF-295 CNS): 3.57 µM
- TGI (SF-295 CNS): 15.9 µM
- GI50 (SF-539 CNS): 6.71 µM
- TGI (SF-539 CNS): 21.3 µM
- GI50 (SK-MEL-2 melanoma): 9.47 µM
- TGI (SK-MEL-2 melanoma): 24.2 µM
- GI50 (SK-MEL-28 melanoma): 12.5 µM
- TGI (SK-MEL-28 melanoma): 25.4 µM
- GI50 (SK-MEL-5 melanoma): 4.13 µM
- TGI (SK-MEL-5 melanoma): 16.2 µM
- GI50 (SK-OV-3 ovarian): 11.6 µM
- TGI (SK-OV-3 ovarian): 39.2 µM
- GI50 (SN12C renal): 7.55 µM
- TGI (SN12C renal): 30.2 µM
- GI50 (SNB-19 CNS): 7.35 µM
- TGI (SNB-19 CNS): > 100 µM
- GI50 (SNB-75 CNS): 2.05 µM
- TGI (SNB-75 CNS): 45.3 µM
- GI50 (SR leukemia): 4.18 µM
- TGI (SR leukemia): 37 µM
- GI50 (SW-620 colon): 6.54 µM
- TGI (SW-620 colon): 30.3 µM
- GI50 (T-47D breast): 11.8 µM
- TGI (T-47D breast): 95.9 µM
- GI50 (TK-10 renal): 10.1 µM
- TGI (TK-10 renal): > 100 µM
- GI50 (U251 CNS): 3.54 µM
- TGI (U251 CNS): 17 µM
- GI50 (UACC-257 melanoma): 10.9 µM
- TGI (UACC-257 melanoma): 31 µM
- GI50 (UACC-62 melanoma): 11.4 µM
- TGI (UACC-62 melanoma): 24.3 µM
- GI50 (UO-31 renal): 4.17 µM
- TGI (UO-31 renal): 21.7 µM
